Assay results from BigSolDB 2.1.

CCCCOC(=O)c1ccc(O)cc1
solubility (mole fraction) (in ethanol, 288.15 K): 0.287 | solubility (mole fraction) (in ethanol, 298.15 K): 0.361 | solubility (mole fraction) (in ethanol, 308.15 K): 0.433 | solubility (mole fraction) (in ethanol, 318.15 K): 0.524 | solubility (mole fraction) (in isopropanol, 288.15 K): 0.293 | solubility (mole fraction) (in isopropanol, 298.15 K): 0.339 | solubility (mole fraction) (in isopropanol, 308.15 K): 0.415 | solubility (mole fraction) (in isopropanol, 318.15 K): 0.512 | solubility (mole fraction) (in n-propanol, 288.15 K): 0.289 | solubility (mole fraction) (in n-propanol, 298.15 K): 0.352 | solubility (mole fraction) (in n-propanol, 308.15 K): 0.448 | solubility (mole fraction) (in n-propanol, 318.15 K): 0.522

CCOC(=O)c1ccc(O)cc1
solubility (mole fraction) (in ethanol, 288.15 K): 0.123 | solubility (mole fraction) (in ethanol, 298.15 K): 0.163 | solubility (mole fraction) (in ethanol, 308.15 K): 0.201 | solubility (mole fraction) (in ethanol, 318.15 K): 0.257 | solubility (mole fraction) (in isopropanol, 288.15 K): 0.157 | solubility (mole fraction) (in isopropanol, 298.15 K): 0.182 | solubility (mole fraction) (in isopropanol, 308.15 K): 0.239 | solubility (mole fraction) (in isopropanol, 318.15 K): 0.282 | solubility (mole fraction) (in n-propanol, 288.15 K): 0.127 | solubility (mole fraction) (in n-propanol, 298.15 K): 0.174 | solubility (mole fraction) (in n-propanol, 308.15 K): 0.214 | solubility (mole fraction) (in n-propanol, 318.15 K): 0.251
